What was measured:
HT-1080 [1] = test: Inhibition of invasion of human HT1080 cells into Matrigel at 0.17 uM; type: functional
HT-1080 [2] = test: Inhibition of invasion of human HT1080 cells into Matrigel at 3.73 uM; type: functional

| Compound | inhibition at 0.17 µM (HT-1080 [1]) [%] | inhibition at 3.73 µM (HT-1080 [2]) [%] |
| --- | --- | --- |
| COc1cccc2c1C(=O)c1c(O)c3c(c(O)c1C2=O)C[C@@](O)(C(=O)CO)C[C@@H]3O[C@H]1C[C@H](N)[C@H](O)[C@H](C)O1 [DOXORUBICIN] | 52 | – |
| C[C@H]1C(=O)[C@@H]2C[C@](C)(CO)C[C@]2(O)[C@@]2(C)CC[C@@]12O [RUSSUJAPONOL A] | – | 63 |

— ChEMBL document CHEMBL1158051, “Russujaponols A-F, illudoid sesquiterpenes from the fruiting body of Russula japonica” (2006)
